# Assay results reported in ChEMBL document CHEMBL5346873, “Strategic modification of low-activity natural antimicrobial peptides confers antibacterial potential in vitro and in vivo” (Eur J Med Chem, 2023).
# The source made the active and inactive calls. No cut-off for these calls is given here.
# Columns and labels:
# Salmonella enterica [1] = assay: Bactericidal activity against Salmonella enterica incubated overnight; type: functional
# Streptococcus iniae [2] = assay: Bactericidal activity against Streptococcus iniae incubated overnight; type: functional
# Acinetobacter baumannii [3] = assay: Synergistic antibacterial activity against Acinetobacter baumannii assessed as doxycycline MIC by checkerboard microtiter plate assay; type: functional
# Vibrio vulnificus [4] = assay: Antibiofilm activity against Vibrio vulnificus V2 assessed as inhibition of biofilm formation at 25 to 100 ug/ml incubated for 24 hrs by crystal violet staining based assay; type: functional, organism-based; conditions: dose 25-100 µg/ml
# Acinetobacter baumannii [5] = assay: Bactericidal activity against Acinetobacter baumannii incubated for overnight; type: functional
# Vibrio vulnificus [6] = assay: Antibacterial activity against Vibrio vulnificus in presence of 0.1 ug/ml pepsin; type: functional, organism-based
# Streptococcus agalactiae [7] = assay: Synergistic antibacterial activity against Streptococcus agalactiae assessed as fractional inhibitory concentration in presence of doxycycline by checkerboard microtiter plate assay; type: functional
# Vibrio alginolyticus [8] = assay: Antibacterial activity against Vibrio alginolyticus incubated for 16 to 20 hrs; type: functional; conditions: time 16-20 hrs
# Enterococcus faecium = assay: Antibacterial activity against Enterococcus faecium incubated for 16 to 20 hrs; type: functional; conditions: time 16-20 hrs
# Vibrio vulnificus [9] = assay: Synergistic antibacterial activity against Vibrio vulnificus assessed as fractional inhibitory concentration in presence of meropenem by checkerboard microtiter plate assay; type: functional
# Vibrio vulnificus [10] = assay: Antibacterial activity against Vibrio vulnificus 204 assessed as induction of resistance development by measuring fold increase in MIC measured after 15 passages; type: functional
# Klebsiella aerogenes [11] = assay: Synergistic antibacterial activity against Enterobacter aerogenes assessed as meropenem MIC by checkerboard microtiter plate assay; type: functional
# Vibrio vulnificus [12] = assay: Antibacterial activity against Vibrio vulnificus 204 incubated for 16 to 20 hrs; type: functional; conditions: time 16-20 hrs
# Salmonella enterica [13] = assay: Antibacterial activity against Salmonella enterica incubated for 16 to 20 hrs; type: functional; conditions: time 16-20 hrs
# [14] = Cytotoxicity against human HaCaT cells incubated for 24 hrs by alamar blue assay; type: toxicity, cell-based; conditions: read-out: LD50
# Pseudomonas aeruginosa [15] = assay: Bactericidal activity against Pseudomonas aeruginosa incubated overnight; type: functional
# Streptococcus agalactiae [16] = assay: Synergistic antibacterial activity against Streptococcus agalactiae assessed as meropenem MIC by checkerboard microtiter plate assay; type: functional
# Streptococcus agalactiae [17] = assay: Antibacterial activity against Streptococcus agalactiae incubated for 16 to 20 hrs; type: functional; conditions: time 16-20 hrs
# Vibrio alginolyticus [18] = assay: Bactericidal activity against Vibrio alginolyticus incubated overnight; type: functional
# Vibrio vulnificus [19] = assay: Antibiofilm activity against Vibrio vulnificus V2 assessed as inhibition of biofilm formation at 25 ug/ml incubated for 24 hrs by crystal violet staining based assay; type: functional, organism-based; conditions: dose 25.0 µg/ml
# Streptococcus iniae [20] = assay: Synergistic antibacterial activity against Streptococcus iniae assessed as fractional inhibitory concentration in presence of doxycycline by checkerboard microtiter plate assay; type: functional
# Klebsiella pneumoniae [21] = assay: Synergistic antibacterial activity against Klebsiella pneumoniae expressing NDM1 in presence of doxycycline by checkerboard microtiter plate assay; type: functional
# Vibrio harveyi = assay: Antibacterial activity against Vibrio harveyi incubated for 16 to 20 hrs; type: functional; conditions: time 16-20 hrs
# Vibrio vulnificus [22] = assay: Antibacterial activity against Vibrio vulnificus V1 incubated for 16 to 20 hrs; type: functional; conditions: time 16-20 hrs
# Vibrio vulnificus [23] = assay: Antibacterial activity against Vibrio vulnificus at pH 2 to 10; type: functional, organism-based
# Vibrio vulnificus [24] = assay: Antibiofilm activity against Vibrio vulnificus 204 assessed as inhibition of biofilm formation at 50 to 100 ug/ml incubated for 24 hrs by crystal violet staining based assay; type: functional, organism-based; conditions: dose 50-100 µg/ml
# Klebsiella aerogenes [25] = assay: Antibacterial activity against Enterobacter aerogenes incubated for 16 to 20 hrs; type: functional; conditions: time 16-20 hrs
# Vibrio vulnificus [26] = assay: Antibiofilm activity against Vibrio vulnificus V1 assessed as inhibition of biofilm formation at 25 ug/ml incubated for 24 hrs by crystal violet staining based assay; type: functional, organism-based; conditions: dose 25.0 µg/ml
# [27] = tested on: Staphylococcus haemolyticus; assay: Antibacterial activity against Staphylococcus haemolyticus incubated for 16 to 20 hrs; type: functional; conditions: time 16-20 hrs
# Vibrio vulnificus [28] = assay: Bactericidal activity against Vibrio vulnificus V3 incubated overnight; type: functional
# Vibrio vulnificus [29] = assay: Antibiofilm activity against Vibrio vulnificus V3 assessed as inhibition of biofilm formation at 25 ug/ml incubated for 24 hrs by crystal violet staining based assay; type: functional, organism-based; conditions: dose 25.0 µg/ml
# Vibrio vulnificus [30] = assay: Antibacterial activity against Vibrio vulnificus 204 assessed as LPS neutralization at 0.25 to 2 times MIC measured after 1 hr by LAL assay; type: functional, organism-based
# Staphylococcus aureus = assay: Bactericidal activity against Staphylococcus aureus incubated for overnight; type: functional
# Klebsiella pneumoniae [31] = assay: Synergistic antibacterial activity against Klebsiella pneumoniae expressing NDM1 assessed as doxycycline MIC by checkerboard microtiter plate assay; type: functional
# Salmonella typhimurium [32] = assay: Bactericidal activity against Salmonella typhimurium incubated overnight; type: functional, Salmonella enterica subsp. enterica serovar Typhimurium; conditions: Salmonella enterica
# Acinetobacter baumannii [33] = assay: Synergistic antibacterial activity against Acinetobacter baumannii assessed as fractional inhibitory concentration in presence of doxycycline by checkerboard microtiter plate assay; type: functional
# Pseudomonas aeruginosa [34] = assay: Additive antibacterial activity against Pseudomonas aeruginosa in presence of meropenem by checkerboard microtiter plate assay; type: functional
# Escherichia coli = assay: Synergistic antibacterial activity against Escherichia coli in presence of meropenem by checkerboard microtiter plate assay; type: functional
# [35] = tested on: Staphylococcus haemolyticus; assay: Bactericidal activity against Staphylococcus haemolyticus incubated overnight; type: functional
# [36] = Dermal toxicity in BALB/c mouse assessed as morphological changes at 125 mg/kg, TOPp measured after 48 hrs; type: organism-based; conditions: in vivo, topical_or_ocular
# Vibrio vulnificus [37] = assay: Bactericidal activity against Vibrio vulnificus V1 incubated overnight; type: functional
# Salmonella typhimurium [38] = assay: Antibacterial activity against Salmonella typhimurium incubated for 16 to 20 hrs; type: functional, Salmonella enterica subsp. enterica serovar Typhimurium; conditions: Salmonella enterica; time 16-20 hrs
# Vibrio vulnificus [39] = assay: Synergistic antibacterial activity against Vibrio vulnificus in presence of meropenem by checkerboard microtiter plate assay; type: functional
# Vibrio vulnificus [40] = assay: Antibacterial activity against Vibrio vulnificus in presence of 10 ug/ml proteinase K; type: functional, organism-based
# Aeromonas hydrophila = assay: Bactericidal activity against Aeromonas hydrophila incubated overnight; type: functional
# Klebsiella aerogenes [41] = assay: Bactericidal activity against Enterobacter aerogenes incubated overnight; type: functional
# Vibrio vulnificus [42] = assay: Antibacterial activity against Vibrio vulnificus in presence of 0.1 ug/ml trypsin; type: functional, organism-based
# Vibrio vulnificus [43] = assay: Synergistic antibacterial activity against Vibrio vulnificus assessed as fractional inhibitory concentration in presence of doxycycline by checkerboard microtiter plate assay; type: functional
# Vibrio anguillarum [44] = assay: Bactericidal activity against Listonella anguillarum incubated overnight; type: functional
# Vibrio vulnificus [45] = assay: Antibiofilm activity against Vibrio vulnificus V1 assessed as inhibition of biofilm formation at 50 to 100 ug/ml incubated for 24 hrs by crystal violet staining based assay; type: functional, organism-based; conditions: dose 50-100 µg/ml
# Vibrio anguillarum [46] = assay: Antibacterial activity against Listonella anguillarum incubated for 16 to 20 hrs; type: functional; conditions: time 16-20 hrs
# [47] = Cytotoxicity against human HaCaT cells incubated for 24 hrs by LDH assay; type: toxicity, cell-based; conditions: read-out: LD50
# Vibrio vulnificus [48] = assay: Antibacterial activity against Vibrio vulnificus in presence of 1 to 10 ug/ml trypsin; type: functional, organism-based
# Enterococcus faecalis [49] = assay: Antibacterial activity against Enterococcus faecalis incubated for 16 to 20 hrs; type: functional; conditions: time 16-20 hrs
# Enterococcus faecalis [50] = assay: Bactericidal activity against Enterococcus faecalis incubated overnight; type: functional
# Streptococcus iniae [51] = assay: Additive antibacterial activity against Streptococcus iniae assessed as fractional inhibitory concentration in presence of meropenem by checkerboard microtiter plate assay; type: functional
# Vibrio vulnificus [52] = assay: Bactericidal activity against Vibrio vulnificus 204 incubated overnight; type: functional
# Klebsiella pneumoniae [53] = assay: Synergistic antibacterial activity against Klebsiella pneumoniae expressing NDM1 assessed as fractional inhibitory concentration in presence of doxycycline by checkerboard microtiter plate assay; type: functional
# Streptococcus agalactiae [54] = assay: Synergistic antibacterial activity against Streptococcus agalactiae assessed as doxycycline MIC by checkerboard microtiter plate assay; type: functional
substance,measurement,setting,value
H-KKCIAKAILKKAKKLLKKLVNP-OH,MBC,Salmonella enterica [1],12.5 mg/L
same,MBC,Streptococcus iniae [2],< 1.56 mg/L
same,MIC,Acinetobacter baumannii [3],0.003 mg/L
same,Activity,Vibrio vulnificus [4],Active
same,MBC,Acinetobacter baumannii [5],1.56 mg/L
same,Activity,Vibrio vulnificus [6],Active
same,FIC,Streptococcus agalactiae [7],0.14
same,MIC,Vibrio alginolyticus [8],3.12 mg/L
same,MIC,Enterococcus faecium,> 100 mg/L
same,FIC,Vibrio vulnificus [9],0.14
same,fold change (FC),Vibrio vulnificus [10],<2
same,MIC,Klebsiella aerogenes [11],0.003 mg/L
same,MIC,Vibrio vulnificus [12],6.25 mg/L
same,MIC,Salmonella enterica [13],12.5 mg/L
same,CC50 at 24 h,[14],> 100 mg/L
same,MBC,Pseudomonas aeruginosa [15],50 mg/L
same,MIC,Streptococcus agalactiae [16],0.002 mg/L
same,MIC,Streptococcus agalactiae [17],3.12 mg/L
same,MBC,Vibrio alginolyticus [18],6.25 mg/L
same,Activity,Vibrio vulnificus [19],inactive
same,FIC,Streptococcus iniae [20],0.04
same,MIC,Klebsiella pneumoniae [21],3.12 mg/L
same,MIC,Vibrio harveyi,25 mg/L
same,MIC,Vibrio vulnificus [22],12.5 mg/L
same,Activity,Vibrio vulnificus [23],Active
same,Activity,Vibrio vulnificus [24],Active
same,MIC,Klebsiella aerogenes [25],12.5 mg/L
same,Activity,Vibrio vulnificus [26],inactive
same,MIC,[27],< 1.56 mg/L
same,MBC,Vibrio vulnificus [28],12.5 mg/L
same,Activity,Vibrio vulnificus [29],inactive
same,Activity,Vibrio vulnificus [30],inactive
same,MBC,Staphylococcus aureus,> 100 mg/L
same,MIC,Klebsiella pneumoniae [31],3.12 mg/L
same,MBC,Salmonella typhimurium [32],100 mg/L
same,FIC,Acinetobacter baumannii [33],0.07
same,MIC,Pseudomonas aeruginosa [34],0.78 mg/L
same,MIC,Escherichia coli,0.39 mg/L
same,MBC,[35],< 1.56 mg/L
same,Activity,[36],Non-Toxic
same,MBC,Vibrio vulnificus [37],12.5 mg/L
same,MIC,Salmonella typhimurium [38],50 mg/L
same,MIC,Vibrio vulnificus [39],0.195 mg/L
same,Activity,Vibrio vulnificus [40],inactive
same,MBC,Aeromonas hydrophila,> 100 mg/L
same,MBC,Klebsiella aerogenes [41],12.5 mg/L
same,Activity,Vibrio vulnificus [42],Active
same,FIC,Vibrio vulnificus [43],0.14
same,MBC,Vibrio anguillarum [44],50 mg/L
same,Activity,Vibrio vulnificus [45],Active
same,MIC,Vibrio anguillarum [46],50 mg/L
same,CC50 at 24 h,[47],> 100 mg/L
same,Activity,Vibrio vulnificus [48],Active
same,MIC,Enterococcus faecalis [49],25 mg/L
same,MBC,Enterococcus faecalis [50],> 100 mg/L
same,FIC,Streptococcus iniae [51],0.51
same,MBC,Vibrio vulnificus [52],6.25 mg/L
same,FIC,Klebsiella pneumoniae [53],0.37
same,MIC,Streptococcus agalactiae [54],0.006 mg/L
H-FKWKSVLKGVKGFVKGYF-OH,MBC,Salmonella enterica [1],12.5 mg/L
same,MBC,Streptococcus iniae [2],< 1.56 mg/L
same,MIC,Acinetobacter baumannii [3],0.003 mg/L
same,Activity,Vibrio vulnificus [4],Active
same,MBC,Acinetobacter baumannii [5],3.12 mg/L
same,Activity,Vibrio vulnificus [6],Active
same,FIC,Streptococcus agalactiae [7],0.14
same,MIC,Vibrio alginolyticus [8],3.12 mg/L
same,MIC,Enterococcus faecium,25 mg/L
same,FIC,Vibrio vulnificus [9],0.14
same,fold change (FC),Vibrio vulnificus [10],<2
same,MIC,Klebsiella aerogenes [11],0.003 mg/L
same,MIC,Vibrio vulnificus [12],6.25 mg/L
same,MIC,Salmonella enterica [13],12.5 mg/L
same,CC50 at 24 h,[14],> 100 mg/L
same,MBC,Pseudomonas aeruginosa [15],50 mg/L
same,MIC,Streptococcus agalactiae [16],0.002 mg/L
same,MIC,Streptococcus agalactiae [17],3.12 mg/L
same,MBC,Vibrio alginolyticus [18],6.25 mg/L
same,Activity,Vibrio vulnificus [19],inactive
same,FIC,Streptococcus iniae [20],0.04
same,MIC,Klebsiella pneumoniae [21],1.56 mg/L
same,MIC,Vibrio harveyi,> 100 mg/L
same,MIC,Vibrio vulnificus [22],12.5 mg/L
same,Activity,Vibrio vulnificus [23],Active
same,Activity,Vibrio vulnificus [24],Active
same,MIC,Klebsiella aerogenes [25],12.5 mg/L
same,Activity,Vibrio vulnificus [26],inactive
same,MIC,[27],< 1.56 mg/L
same,MBC,Vibrio vulnificus [28],12.5 mg/L
same,Activity,Vibrio vulnificus [29],inactive
same,Activity,Vibrio vulnificus [30],Active
same,MBC,Staphylococcus aureus,50 mg/L
same,MIC,Klebsiella pneumoniae [31],1.56 mg/L
same,MBC,Salmonella typhimurium [32],12.5 mg/L
same,FIC,Acinetobacter baumannii [33],0.07
same,MIC,Pseudomonas aeruginosa [34],6.25 mg/L
same,MIC,Escherichia coli,0.097 mg/L
same,MBC,[35],< 1.56 mg/L
same,Activity,[36],Non-Toxic
same,MBC,Vibrio vulnificus [37],12.5 mg/L
same,MIC,Salmonella typhimurium [38],12.5 mg/L
same,MIC,Vibrio vulnificus [39],0.097 mg/L
same,Activity,Vibrio vulnificus [40],inactive
same,MBC,Aeromonas hydrophila,> 100 mg/L
same,MBC,Klebsiella aerogenes [41],12.5 mg/L
same,Activity,Vibrio vulnificus [42],Active
same,FIC,Vibrio vulnificus [43],0.14
same,MBC,Vibrio anguillarum [44],100 mg/L
same,Activity,Vibrio vulnificus [45],Active
same,MIC,Vibrio anguillarum [46],100 mg/L
same,CC50 at 24 h,[47],> 100 mg/L
same,Activity,Vibrio vulnificus [48],Active
same,MIC,Enterococcus faecalis [49],50 mg/L
same,MBC,Enterococcus faecalis [50],> 100 mg/L
same,FIC,Streptococcus iniae [51],0.51
same,MBC,Vibrio vulnificus [52],6.25 mg/L
same,FIC,Klebsiella pneumoniae [53],0.18
same,MIC,Streptococcus agalactiae [54],0.006 mg/L
